The source of these data is USRE45810E1, “Process for producing spherical base granule comprising easily water-soluble drug” (ASAHI KASEI CHEMICALS CORPORATION, priority 2006, dated 2015).

For data set [1] the following is noted: in 1 cm^3 of water of 20° C., cited from earlier work.
Data set [2] can be described thus: Tackiness of dried film of layering liquid, finger test by panel of three experts. The format is physicochemical. As for the experimental part:
A layering liquid (3 g) is poured in a polypropylene Petri dish having a diameter of 8 cm and dried at 40° C. in an air-circulation-free dryer (“FC610”, product of Advantec Co., Ltd.). Within three seconds after taking out the dried product from the dryer, tackiness of the dried film when an index finger is pressed against the film for two seconds and then released therefrom is evaluated by a panel of three experts. The tackiness is rated as “1” when no tackiness is observed, “2” when a little tackiness is observed, “3” when tackiness is observed, “4” when strong tackiness is observed, and “5” when very strong tackiness is observed. The tackiness of the dried film is evaluated by the average of them.
It is known empirically that agglomeration occurs during layering when the tackiness is “3” or higher so that the layering rate must be set low to prevent it. Layering cannot be performed in practice when the tackiness is “5”.

Read-outs that look alike come from different tables or passages of the source.

In the case of `OC[C@@H](O)[C@@H](O)[C@H](O)[C@H](O)CO` [D-mannitol], the Solubility in data set [1] is recorded as 0.18 g.
In the case of `O=C(CO)[C@@H](O)[C@H](O)[C@H](O)CO` [Fructose, fructose], the Solubility in data set [1] was 6 g; in data set [1] (listed as fructose), 0.6 g. Further, the “Tackiness of layering liquid (in words)” value in data set [2] is “do not show a tackiness reducing effect”.
With `OC[C@@H](O)[C@@H](O)[C@H](O)[C@@H](O)CO` [Sorbitol, sorbitol], the Solubility in data set [1] was 0.9 g. In addition, the “Tackiness of layering liquid (in words)” value in data set [2] is reported as “do not show a tackiness reducing effect”.
